Data as given in publication PMC2362940 (British Journal of Cancer, 1999).
“Also recorded” adds a separate entry of the source. Read-outs that look alike come from different tables or passages of the source.

Experiments:
[1] = molecular target: T1, P-gp in MES-Dx5 membranes (Homo sapiens, UniProt P08183)
P-gp [2] = molecular target: P-gp (Homo sapiens, UniProt P08183); assay: in vitro; conditions: membrane preparations of MES-Dx5 cells (P-gp-expressing), MES-Dx5 membranes
MES-SA cells [3] = assay: MTT dye-based cytotoxicity assay, 72-h exposure, parental MES-SA cells; conditions: Homo sapiens, read-out: EC50 of cytotoxic drug in MES-SA cells
MES-Dx5 cells [4] = assay: MTT dye-based cytotoxicity assay, 72-h exposure, P-gp-expressing MES-Dx5 cells; assay type: cell-based, human; conditions: for EC50: Homo sapiens, read-out: EC50 of cytotoxic drug in MES-Dx5 cells; for EC50 / Resistance factor (RF) of MES-Dx5 relative to MES-SA cells: MTT
MCF-7/ADR cells = assay: MTT cytotoxicity of taxol with P-gp inhibitors at 10% or 50% FCS in MCF-7/ADR cells; assay type: cell-based, human; conditions: for Resistance of MCF-7/ADR cells: MA Russell and DR Ferry, unpublished data; for EC50: Homo sapiens, NCI/ADR-RES
MES-Dx5 cells [5] = assay: Radiolabelled drug accumulation assay in MES-Dx5 cells; assay type: cell-based, human; conditions: for Accumulation deficit of MES-Dx5 relative to parental MES-SA cells: steady state; for EC50: Homo sapiens, MES-Dx5, 4 h
[6] = molecular target: T1, P-gp in MES-Dx5 membranes; assay: biochemical
P-gp [7] = assay: Radiolabelled drug accumulation assay in MES-Dx5 cells; assay type: cell-based, human; conditions: human, MES-Dx5 cells (P-gp-expressing); read-out: EC50 for reversal of the accumulation deficit, range over all three radiolabelled cytotoxics
MES-SA cells [8] = assay: Radiolabelled drug accumulation assay in MES-SA cells; assay type: cell-based, human; conditions: data not shown
[9] = tested on: P388/Dox leukaemia or C26 colon carcinoma; parameters: method as in Hyafil et al, 1993; conditions: single dose of GF120918; ref Hyafil et al, 1993; cited from earlier work
COR-L23 R = assay: Sensitization of MRP1-expressing COR-L23 R cells to doxorubicin; assay type: cell-based; conditions: 1 M (µM) GF120918, unpublished data
MES-Dx5 cells [10] = assay: Reversal of MES-Dx5 resistance to cytotoxics by P-gp inhibitor (MTT assay, % maximal shift); assay type: cell-based, human; conditions: for EC50: Homo sapiens, MES-Dx5, MTT 72 h
P-gp [11] = tested on: P-gp; parameters: method as in Hyafil et al, 1993; conditions: ref Hyafil et al, 1993; cited from earlier work
MCF-7 WT cells [12] = assay: cells; conditions: Homo sapiens, MCF7, 72 h
MCF-7 WT cells [13] = tested on: MCF-7 WT cells
[14] = inhibition of [3H]-vinblastine binding, single representative experiment, Figure 7B, 5 nM [3H]-vinblastine

T1 sequence (P08183 whole entry): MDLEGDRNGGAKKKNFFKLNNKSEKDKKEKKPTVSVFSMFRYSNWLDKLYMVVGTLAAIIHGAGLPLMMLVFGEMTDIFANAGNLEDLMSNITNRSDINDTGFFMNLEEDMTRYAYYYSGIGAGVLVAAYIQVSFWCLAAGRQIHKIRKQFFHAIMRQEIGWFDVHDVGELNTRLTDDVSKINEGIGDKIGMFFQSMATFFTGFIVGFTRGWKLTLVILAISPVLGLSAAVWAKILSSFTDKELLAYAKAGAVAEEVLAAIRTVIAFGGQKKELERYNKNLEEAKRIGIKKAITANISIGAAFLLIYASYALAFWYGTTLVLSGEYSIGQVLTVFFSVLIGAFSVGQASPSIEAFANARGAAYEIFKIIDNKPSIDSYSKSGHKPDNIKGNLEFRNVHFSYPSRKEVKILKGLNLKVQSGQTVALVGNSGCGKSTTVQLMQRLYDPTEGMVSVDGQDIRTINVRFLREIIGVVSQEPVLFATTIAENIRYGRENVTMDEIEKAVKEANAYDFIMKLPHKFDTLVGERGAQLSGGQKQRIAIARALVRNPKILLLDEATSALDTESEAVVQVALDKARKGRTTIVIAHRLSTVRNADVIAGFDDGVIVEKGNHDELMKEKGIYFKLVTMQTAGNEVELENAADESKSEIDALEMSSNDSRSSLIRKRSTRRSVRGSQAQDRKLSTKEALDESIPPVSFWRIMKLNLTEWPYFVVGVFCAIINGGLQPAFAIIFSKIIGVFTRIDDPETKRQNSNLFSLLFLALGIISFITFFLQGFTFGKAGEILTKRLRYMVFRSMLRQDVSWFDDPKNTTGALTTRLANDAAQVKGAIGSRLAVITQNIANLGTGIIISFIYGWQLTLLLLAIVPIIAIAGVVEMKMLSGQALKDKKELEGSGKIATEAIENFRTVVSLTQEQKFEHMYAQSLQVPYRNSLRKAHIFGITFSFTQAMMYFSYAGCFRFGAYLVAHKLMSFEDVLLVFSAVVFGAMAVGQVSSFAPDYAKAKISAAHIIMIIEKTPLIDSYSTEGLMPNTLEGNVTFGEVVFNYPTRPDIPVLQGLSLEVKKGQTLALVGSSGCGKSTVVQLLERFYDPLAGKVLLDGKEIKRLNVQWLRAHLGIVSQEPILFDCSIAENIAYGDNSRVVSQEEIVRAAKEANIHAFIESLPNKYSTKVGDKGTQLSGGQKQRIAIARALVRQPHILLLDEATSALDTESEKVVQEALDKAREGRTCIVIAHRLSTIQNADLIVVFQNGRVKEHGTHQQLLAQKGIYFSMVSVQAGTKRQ
Chain of P-gp (P08183 whole entry): as above

## CC[C@]1(O)C[C@@H]2CN(CCc3c([nH]c4ccccc34)[C@@](C(=O)OC)(c3cc4c(cc3OC)N(C)[C@H]3[C@@](O)(C(=O)OC)[C@H](OC(C)=O)[C@]5(CC)C=CCN6CC[C@]43[C@@H]65)C2)C1 [[3 H]-vinblastine]
[1]; Figure 6, 1 mM ATP and 3 mM MgCl2, single experiment
  Bmax of [3H]-vinblastine binding in the presence of ATP and MgCl2: 10.9 pmol mg-1 protein
[1]; Figure 6, control without ATP/MgCl2
  Bmax of [3H]-vinblastine binding, single representative experiment: 8.6 pmol mg-1 protein
[1]; MES-Dx5 membranes
  Bmax of [3H]-vinblastine binding (mean): 5.2 pmol mg-1 protein
[1]; MES-Dx5 membranes, listed as [^3H]-vinblastine
  Bmax of [3H]-vinblastine binding (mean): 5.2 ± 1.6 pmol mg-1 protein
P-gp [2]; KD of [3H]-vinblastine binding, saturation analysis (mean)
  Kd: 7.8 ± 1.4 nM

## CC[C@]1(O)C[C@@H]2CN(CCc3c([nH]c4ccccc34)[C@@](C(=O)OC)(c3cc4c(cc3OC)N(C)[C@H]3[C@@](O)(C(=O)OC)[C@H](OC(C)=O)[C@]5(CC)C=CCN6CC[C@]43[C@@H]65)C2)C1 [vinblastine]
MES-SA cells [3]
  EC50: 3 nM
MES-Dx5 cells [4]
  EC50: 30 nM

## C/C=C/C[C@@H](C)C(=O)[C@H]1C(=O)N[C@@H](C(C)C)C(=O)N(C)CC(=O)N(C)[C@@H](CC(C)C)C(=O)N[C@@H](C(C)C)C(=O)N(C)[C@@H](CC(C)C)C(=O)N[C@@H](C)C(=O)N[C@H](C)C(=O)N(C)[C@@H](CC(C)C)C(=O)N(C)[C@@H](CC(C)C)C(=O)N(C)[C@@H](C(C)C)C(=O)N1C [PSC 833]
MCF-7/ADR cells; MCF-7/ADR, taxol, MTT 72 h
  Ratio of EC50s (50% FCS vs 10% FCS) in presence of P-gp inhibitor: 19 fold

## COc1cccc2c1C(=O)c1c(O)c3c(c(O)c1C2=O)C[C@@](O)(C(=O)CO)C[C@@H]3O[C@H]1C[C@H](N)[C@H](O)[C@H](C)O1 [[14 C]-doxorubicin]
MES-Dx5 cells [5]
  Accumulation deficit of MES-Dx5 relative to parental MES-SA cells: 20%

## COc1cccc2c1C(=O)c1c(O)c3c(c(O)c1C2=O)C[C@@](O)(C(=O)CO)C[C@@H]3O[C@H]1C[C@H](N)[C@H](O)[C@H](C)O1 [doxorubicin]
MCF-7/ADR cells
  Resistance of MCF-7/ADR cells: 200 fold
MES-SA cells [3]
  EC50: 58 nM
[6]; inhibition of [3H]-vinblastine binding to P-gp (mean), MES-Dx5 membranes, 21C
  Ki: 6940 ± 2100 nM
[6]; [14]
  Ki: 112000 nM
MES-Dx5 cells [4]
  EC50: 534 nM

## CC(=O)O[C@H]1C(=O)[C@@]2(C)[C@H]([C@H](OC(=O)c3ccccc3)[C@]3(O)C[C@H](OC(=O)[C@H](O)[C@@H](NC(=O)c4ccccc4)c4ccccc4)C(C)=C1C3(C)C)[C@]1(OC(C)=O)CO[C@@H]1C[C@@H]2O [[3 H]-taxol]
MES-Dx5 cells [5]
  Accumulation deficit of MES-Dx5 relative to parental MES-SA cells: 20%

## COc1cc2c(cc1OC)CN(CCc1ccc(NC(=O)c3cccc4c(=O)c5cccc(OC)c5[nH]c34)cc1)CC2 [GF120918]
MES-Dx5 cells [5]; read-out: [GF120918] reverses accumulation-deficit by 50%, [3H]-taxol
  EC50: […]
MES-Dx5 cells [5]; read-out: [GF120918] reverses accumulation-deficit by 50%, [3H]-vinblastine
  EC50: 48 nM
MES-Dx5 cells [5]; read-out: [GF120918] reverses accumulation-deficit by 50%, [14C]-doxorubicin
  EC50: […]
P-gp [7]
  EC50: […]
MES-SA cells [8]
  Effect on cellular content of radiolabelled cytotoxics in sensitive MES-SA cells: did not increase
[9]
  Sensitization of xenograft-bearing mice to doxorubicin: sensitized mice
COR-L23 R
  Sensitization of COR-L23 R (MRP1, not P-gp) to doxorubicin: not sensitized
MES-Dx5 cells [10]; read-out: EC50 of GF120918 to reverse resistance (shifts sensitivity by 50%) to doxorubicin, cytotoxic doxorubicin
  EC50: 21 ± 6 nM
MES-Dx5 cells [10]; read-out: EC50 of GF120918 to reverse resistance (shifts sensitivity by 50%) to etoposide, cytotoxic etoposide
  EC50: 7 ± 2 nM
MES-Dx5 cells [10]; read-out: EC50 of GF120918 to reverse resistance (shifts sensitivity by 50%) to taxol, cytotoxic taxol
  EC50: 91 ± 23 nM
MES-Dx5 cells [10]; read-out: EC50 of GF120918 to reverse resistance (shifts sensitivity by 50%) to taxotere, cytotoxic taxotere
  EC50: 57 ± 14 nM
MES-Dx5 cells [10]; read-out: EC50 of GF120918 to reverse resistance (shifts sensitivity by 50%) to vinblastine, cytotoxic vinblastine
  EC50: 19 ± 3 nM
MES-Dx5 cells [10]; MES-Dx5, MTT assay
  Lowest concentration exhibiting a measurable reversal of resistance: […]
MES-Dx5 cells [10]; to level of parental MES-SA cells
  Extent of reversal of MES-Dx5 resistance, all tested cytotoxic drugs: reversed resistance completely; also recorded: fully reverse resistance
P-gp [11]
  Concentration at which activity was consistently achieved in vitro: […]
MES-Dx5 cells [4]; MTT assay
  Cytotoxic effect of GF120918 alone: did not produce a cytotoxic effect

## CO[C@@H]1[C@H](N(C)C(=O)c2ccccc2)C[C@H]2O[C@]1(C)n1c3ccccc3c3c4c(c5c6ccccc6n2c5c31)C(=O)NC4 [CGP 41251]
MCF-7/ADR cells; MCF-7/ADR, taxol, MTT 72 h
  Ratio of EC50s (50% FCS vs 10% FCS) in presence of P-gp inhibitor: 30 fold

## COc1cc([C@@H]2c3cc4c(cc3[C@@H](O[C@@H]3O[C@@H]5CO[C@@H](C)O[C@H]5[C@H](O)[C@H]3O)[C@H]3COC(=O)[C@H]23)OCO4)cc(OC)c1O [etoposide]
MES-SA cells [3]
  EC50: 3000 nM
MES-Dx5 cells [4]
  EC50: 6850 nM

## CC(=O)O[C@H]1C(=O)[C@@]2(C)[C@H]([C@H](OC(=O)c3ccccc3)[C@]3(O)C[C@H](OC(=O)[C@H](O)[C@@H](NC(=O)c4ccccc4)c4ccccc4)C(C)=C1C3(C)C)[C@]1(OC(C)=O)CO[C@@H]1C[C@@H]2O [taxol]
MCF-7/ADR cells; read-out: EC50 of taxol without inhibitor, 10% FCS, MCF-7/ADR, MTT 72 h
  EC50: 8500 nM
MCF-7/ADR cells; read-out: EC50 of taxol without inhibitor, 50% FCS, MCF-7/ADR, MTT 72 h
  EC50: 4600 nM
MCF-7/ADR cells
  Resistance of MCF-7/ADR cells: 1000 fold
[1]; MES-Dx5 membranes, allosteric inhibitor
  Maximal displacement of [3H]-vinblastine bound to P-gp: 40%
P-gp [2]; probe [3H]-vinblastine, Ki, inhibition of [3H]-vinblastine binding to P-gp (mean), 3 h, 21C
  Ki at 3 h: 400 ± 140 nM
MES-SA cells [3]
  EC50: 5 nM
[6]; [14]
  Ki: 96 nM
MCF-7 WT cells [12]; read-out: EC50 of taxol without inhibitor, 10% FCS
  EC50: 6 nM
MCF-7 WT cells [12]; read-out: EC50 of taxol without inhibitor, 50% FCS
  EC50: 5 nM
MES-Dx5 cells [4]
  EC50: 470 nM
  Resistance factor (RF) of MES-Dx5 relative to MES-SA cells: 94 fold
MCF-7 WT cells [13]
  Ratio of EC50s (50% FCS vs 10% FCS), taxol without inhibitor: 0.84

## CC(=O)O[C@@]12CO[C@@H]1C[C@H](O)[C@@]1(C)C(=O)[C@H](O)C3=C(C)[C@@H](OC(=O)[C@H](O)[C@@H](NC(=O)OC(C)(C)C)c4ccccc4)C[C@@](O)([C@@H](OC(=O)c4ccccc4)[C@H]21)C3(C)C [taxotere]
MES-SA cells [3]
  EC50: 5 nM
MES-Dx5 cells [4]
  EC50: 93 nM
  Resistance factor (RF) of MES-Dx5 relative to MES-SA cells: 19 fold

## COC(=O)C1=C(C)NC(C)=C(C(=O)OCCCN2CCC(c3ccccc3)(c3ccccc3)CC2)[C@@H]1c1cccc([N+](=O)[O-])c1 [Dexniguldipine]
MCF-7/ADR cells
  Ratio of EC50s (50% FCS vs 10% FCS) in presence of P-gp inhibitor: 37 fold
